US6525087B2, “Use of known agonists of the central cannabinoid receptor CB1” (Bayer Aktiengesellschaft, priority 1997, dated 2003)

Experiments:
[1] = Brain Res. references; cited from earlier work
glutamate release [2] = conditions: Brain Res. references; cited from earlier work
[3] = Hypothermia, agonism testing; assay type: in vivo; conditions: rat, i.v.
Protocol: Five minutes after determination of the basal body temperature via an oesophageal temperature probe, the test substance is administered (i.v.). A control group receives only the solvent for the test substances, likewise i.v. The body temperature is measured 7.5, 15, 30 and 60 minutes after i.v. administration. The group size per dose is 5-7 animals (rats).

[4] = Subdural haematoma in the rat (SDH); assay type: in vivo; conditions: 2 and 4 h after trauma
Protocol: Subdural Haematoma in the Rat (SDH)
Under anaesthesia, the animals' own blood is injected subdurally on one side. An infarct is formed under the haematoma. Substance administration is carried out according to different time schemes and via different administration routes (i.v., i.p.). The infarct size is determined as described in the model of permanent focal ischaemia in the rat (MCA-O).

[5] = Permanent focal cerebral ischaemia in the rat (MCA-O); assay type: in vivo; conditions: 2 and 4 h after occlusion, infarct size after 7 days
Protocol: Permanent Focal Cerebral Ischaemia in the Rat (MCA-O)
Under isoflurane anaesthesia, the median cerebral artery is exposed on one side and the latter and its side branches are irreversibly sealed by means of electrocoagulation. As a result of the intervention a cerebral infarct is formed. During the operation, the body temperature of the animal is kept at 37° C. After wound closure and wearing off of the anaesthesia, the animals are again released into their cage. The administration of substances is carried out according to different time schemes and via different administration routes (i.v., i.p.) after occlusion. The infarct size is determined after 7 days. To do this, the brain is removed, worked up histologically and the infarct volume is determined with the aid of a computer-assisted analysis system.

glutamate release [6] = test: Inhibition of glutamate release (rat hippocampus sections, KCl stimulation); assay type: cell-based; conditions: 75 mM KCl, ratio S2/S1
Protocol: Inhibition of Glutamate Release
After decapitation of a rat, the skull is opened, and the brain is lifted out and cut through along the median fissure. The hippocampus is exposed, separated from the remaining tissue, cut into 350 μm thick sections and incubated at 37° C. in straining vessels for 60 min. Followed by basal value and stimulation 1 with 75 mM KCl (S 1), the sections are incubated with test substance and then the stimulation with KCl and test substance (S2) is repeated. The glutamate concentration of the samples to be investigated is then measured by means of an enzymatic reaction (GLDH) and fluorometric measurement of NADH. By means of a calibration curve, the glutamate content of the sample is determined, and with knowledge of the protein content the glutamate content/mg of protein can be calculated. The ratio S2/S1 is compared; glutamate release inhibitors reduce this ratio in a concentration-dependent manner.

[7] = target: T1, rat cannabinoid receptor CB1 (Rattus norvegicus, UniProt P20272); test: CB1 luciferase reporter gene test; assay type: cell-based; conditions: CHOCB1 reporter cell line, forskolin-stimulated
T1 construct: contains an open reading frame of 1419 base pairs which corresponds to a protein of 473 amino acids; expressed in transfected cells; host or cells: CHOluc9 reporter cells, stably transfected with plasmid CMV-RH (pRc/CMV)
T1 sequence (P20272 whole entry): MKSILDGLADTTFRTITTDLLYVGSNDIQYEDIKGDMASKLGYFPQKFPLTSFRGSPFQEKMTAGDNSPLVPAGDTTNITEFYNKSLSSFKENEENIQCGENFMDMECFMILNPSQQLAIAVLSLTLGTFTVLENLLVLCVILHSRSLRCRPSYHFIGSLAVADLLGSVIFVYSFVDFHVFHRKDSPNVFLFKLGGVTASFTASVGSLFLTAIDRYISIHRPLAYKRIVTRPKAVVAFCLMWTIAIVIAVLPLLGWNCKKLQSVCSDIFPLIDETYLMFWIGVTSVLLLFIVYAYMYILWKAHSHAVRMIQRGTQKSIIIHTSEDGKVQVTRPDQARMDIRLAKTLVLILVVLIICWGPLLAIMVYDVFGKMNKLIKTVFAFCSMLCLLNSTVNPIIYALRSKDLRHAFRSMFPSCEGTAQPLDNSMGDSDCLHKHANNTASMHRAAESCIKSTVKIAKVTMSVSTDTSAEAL
Protocol: CB1 Luciferase Reporter Gene Test
This construct (plasmid CMV-RH) was employed for transfection experiments.
Stable Transfection of the CHOluc9 Reporter Cells
CHOluc9 cells were cultured in 50% Dulbecco's modified Eagle Medium/50% F-12 (DMEM/F12) which contained 10% foetal calf serum (FCS). Transfections were prepared in 6-well plates. 7.5 μg of Qiagen-purified CMV-RH plasmid DNA were added per 10^5 cells with the DOTAP transfections system, corresponding to the experimental protocol of the manufacturer (Boehringer Mannheim). Transfected cells were selected with 1 mg/ml G418 and individual clones were obtained by limiting dilution on 96-well plates. Cell lines which express the cannabinoid receptor were identified in the presence of forskolin for the inhibition of reporter gene expression after incubation with the cannabinoid receptor agonist, WIN-55,2121-2. Several stably transfected and subcloned cell lines were further characterized by means of RT-PCR, as described under 1.
Test Optimization and Pharmacological Characterization of the CHOCB1 Reporter Cell Line
The following test protocol was used for pharmacological characterization of the cells and for robot-assisted substance screening: the stock cultures were cultured in 50% Dulbecco's modified Eagle Medium/50% F-12 (DMEM/F12) with 10% FCS at 37° C. under 10% CO2 and in each case split 1:10 after 2 to 3 days. […]

rat cortex membranes = target: T2, rat cortex membranes (Rattus norvegicus, UniProt P20272); test: Binding studies on rat cortex membranes
T2 construct: Membrane protein is prepared from different tissues or from cells by standard methods; from tissue; host or cells: rat cortex membranes
T2 sequence (P20272 whole entry): as above
Protocol: Binding Studies on Rat Cortex Membranes
Membrane protein is prepared from different tissues or from cells by standard methods. Buffer, labelled ligands, DMSO or test substance are pipetted together, then 100 μg of protein are added, and the mixture is well mixed and incubated in a water bath at 30° C. for 60 min. After expiry of the incubation time, the reaction is stopped by addition of ice-cold incubation buffer to each tube. After filtering off, washing is carried out with ¾ ml of incubation buffer. The filters are transferred to minivials and the radioactivity is determined in a liquid scintillation counter.

cannabinoid receptor = conditions: cited from earlier work
[8] = J. Neurotrauma 1993, 10, 109; cited from earlier work

Cn1c(=O)c2[nH]cnc2n(C)c1=O [theophylline]
neuroprotective action in vivo [1]: no neuroprotective action | inhibition of glutamate release in vitro (glutamate release [2]): markedly inhibit glutamate release

CCCCCc1cc(O)c2c(c1)OC(C)(C)[C@@H]1CCC(C)=C[C@@H]21 [Example 1]
Hypothermia ED−1°C. (necessary dose to achieve a maximum temperature drop of 1° C.) [3]: 0.8 mg/kg i.v. | % reduction in the infarct volume ([4]; 0.3 mg/kg i.v. bolus directly): 50% | % reduction in the infarct volume ([5]; 1.0 mg/kg i.v. bolus directly): 31% | Inhibition of glutamate release, % Inhibition @ 1 μM (glutamate release [6]): no effect

CCCCCCC(C)(C)c1cc(O)c2c(c1)OC(C)(C)[C@@H]1CC=C(CO)C[C@@H]21 [Example 5]
Hypothermia ED−1°C. (necessary dose to achieve a maximum temperature drop of 1° C.) [3]: 0.01 mg/kg i.v. | IC50 [7]: 0.48 nM | % reduction in the infarct volume ([4]; 0.001 mg/kg i.v. bolus directly): 58% | % reduction in the infarct volume ([5]; 0.01 mg/kg i.v. bolus directly): 48% | Ki (rat cortex membranes): 1 nM | inhibition at 1 µM (glutamate release [6]): 20%

Cc1c(C(=O)c2cccc3ccccc23)c2cccc3c2n1[C@H](CN1CCOCC1)CO3 [Example 18]
Hypothermia ED−1°C. (necessary dose to achieve a maximum temperature drop of 1° C.) [3]: 0.2 mg/kg i.v. | % reduction in the infarct volume ([5]; 0.03 mg/kg i.v. bolus directly): 20% | inhibition at 1 µM (glutamate release [6]): 50%

CCCCCCC(C)(C)c1cc(O)c2c(c1)OC(C)(C)[C@H]1CC=C(CO)C[C@H]21 [HU-211]
activity on the cannabinoid receptor (cannabinoid receptor): inactive

CCCCCCC(C)(C)c1ccc([C@@H]2C[C@H](O)CC[C@H]2CCCO)c(O)c1 [Example 15]
Hypothermia ED−1°C. (necessary dose to achieve a maximum temperature drop of 1° C.) [3]: 0.03 mg/kg i.v.

CCCCCCC(C)(C)c1cc(O)c2c(c1)OC(C)(C)[C@@H]1CC=C(CO)C[C@@H]21 [HU210]
neuroprotection in a craniocerebral trauma model [8]: non-neuroprotective

O=C(O)c1cc(=O)c2ccccc2[nH]1 [kynurenic acid]
inhibition of glutamate release in vitro (glutamate release [2]): markedly inhibit glutamate release
